Experimental data taken from article PMC4701951, “Characterization of a New M13 Metallopeptidase from Deep-Sea Shewanella sp. E525-6 and Mechanistic Insight into Its Catalysis” (Frontiers in Microbiology, 2016).

Biological target: T1, PepS (Shewanella sp. E525-6, UniProt A0A140CQI1)
T1 construct: mature N-terminus L17-T-A-C-N21 (16-residue signal peptide removed)
T1 sequence (A0A140CQI1 17-694): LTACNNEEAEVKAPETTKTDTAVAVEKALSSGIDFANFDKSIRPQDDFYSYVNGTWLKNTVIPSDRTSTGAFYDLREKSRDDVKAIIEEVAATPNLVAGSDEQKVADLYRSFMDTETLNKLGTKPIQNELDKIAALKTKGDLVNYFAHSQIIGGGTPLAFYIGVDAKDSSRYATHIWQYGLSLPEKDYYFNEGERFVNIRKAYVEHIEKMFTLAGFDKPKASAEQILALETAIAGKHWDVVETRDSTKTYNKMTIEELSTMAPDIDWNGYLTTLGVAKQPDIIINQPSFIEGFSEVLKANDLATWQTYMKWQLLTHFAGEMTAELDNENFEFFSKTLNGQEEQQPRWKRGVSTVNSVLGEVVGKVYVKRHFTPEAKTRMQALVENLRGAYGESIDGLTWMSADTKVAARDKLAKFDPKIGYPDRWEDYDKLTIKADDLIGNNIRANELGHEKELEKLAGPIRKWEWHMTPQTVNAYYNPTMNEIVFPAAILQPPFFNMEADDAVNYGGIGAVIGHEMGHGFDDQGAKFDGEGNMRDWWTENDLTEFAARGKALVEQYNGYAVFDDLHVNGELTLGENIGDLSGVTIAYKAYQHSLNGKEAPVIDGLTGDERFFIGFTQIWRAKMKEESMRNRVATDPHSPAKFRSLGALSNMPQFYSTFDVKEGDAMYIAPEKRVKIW
Assay: residual peptidase activity, HPLC of product FSP
Assay type: biochemical
Source text: residual peptidase activity, HPLC of product FSP on PepS

With `CC(C)C[C@H](NP(=O)(O)O[C@@H]1O[C@@H](C)[C@H](O)[C@@H](O)[C@H]1O)C(=O)N[C@@H](Cc1c[nH]c2ccccc12)C(=O)O` [Phosphoramidon] the remaining activity at 10 µM was 4.3 ± 0.4%.
